Several values for one entry are separate records, joined by “and”; a condition that tells them apart may be missing. Equal entries are not always repeated. Where two headings read alike, the source gives them in different places.
Assays:
[1] = molecular target: human α-thrombin (Homo sapiens, UniProt P00734); experiment: Protease inhibition, Ki for human α-thrombin (fluorogenic substrate Z-Gly-Gly-Arg-AMC); format: biochemical; details: for Human alpha thrombin inhibition, slope normalized to DMSO: replicates R1-R3
How it was run: (§1)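 Ki derived through Cheng–Prusoff from IC50s (four-parameter logistic fit) against activity of peptide-free controls. Product fluorescence was read every 3 min over 30 min at 25 °C, substrate Z-Gly-Gly-Arg-AMC at 50 μM. Enzyme was 2 nM human or 3 nM rat α-thrombin, pH 7.4 buffer.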

[2] = molecular target: T1, rat α-thrombin (Rattus norvegicus, UniProt P18292); experiment: Protease inhibition, Ki for rat α-thrombin (fluorogenic substrate Z-Gly-Gly-Arg-AMC); format: biochemical; details: for Slope normalized to DMSO (proteolytic substrate cleavage over time) / Rat alpha thrombin inhibition, slope normalized to DMSO: replicates R1-R3
T1 construct: rat α-thrombin (Molecular Innovations) were used at final concentrations of 2 nM and 3 nM; purchased Molecular Innovations
How it was run: as §1

[3] = molecular target: T2, porcine pepsin (Sus scrofa, UniProt P00791); experiment: Peptide stability in simulated gastric fluid (SGF); format: in vitro ADME
T2 construct: 0.32 g of porcine pepsin (Sigma-Aldrich, P7125) was dissolved under gentle agitation; purchased Sigma-Aldrich P7125
T2 sequence (P00791 60-385): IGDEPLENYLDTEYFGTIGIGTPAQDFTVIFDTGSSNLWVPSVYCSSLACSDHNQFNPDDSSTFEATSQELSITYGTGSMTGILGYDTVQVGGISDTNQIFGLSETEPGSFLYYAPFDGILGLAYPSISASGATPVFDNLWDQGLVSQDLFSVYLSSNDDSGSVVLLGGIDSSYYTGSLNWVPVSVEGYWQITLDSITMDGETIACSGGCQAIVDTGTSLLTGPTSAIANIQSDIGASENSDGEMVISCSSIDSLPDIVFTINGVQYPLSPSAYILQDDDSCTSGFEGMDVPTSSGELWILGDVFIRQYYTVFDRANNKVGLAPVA
How it was run: (§2)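 Peptide from a 1 mM DMSO stock was added to fluid pre-warmed at 37 °C. SGF was pH 1.2 NaCl with porcine pepsin (0.32 g per 100 ml), and SIF was pH 6.8 potassium phosphate with porcine pancreatin (1 g per 100 ml). Supernatant peptide was quantified by LC–MS, with residual expressed as T1/T0.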

[4] = Peptide stability in simulated intestinal fluid (SIF); format: in vitro ADME, porcine; details: pig, simulated gi fluid; 8 h, 37 °C, pH 6.8; read-out: Proteolytic stability: SIF (8 h) % remaining
How it was run: as §2

[5] = test system: porcine pancreatin; experiment: as above; format: in vitro ADME; details: after 8 h vs 0 h (TIC)
How it was run: as §2

[6] = Passive artificial membrane permeability (PAMPA)
[7] = peptide 1.33E+02 uM, slope of proteolytic substrate cleavage over time

CN1CCC(=O)NCCSCCS(=O)(=O)CCSC[C@H](NC(=O)c2ccc(Cl)s2)C(=O)N[C@@H](Cc2ccccc2)C1=O [compound 14]
IC50 ([1]; human alpha thrombin, individual replicates R1-R3, read-out: IC50): 1.24 µM and 0.961 µM and 0.88 µM | Ki ([1]; human alpha thrombin, individual replicates R1-R3, read-out: Ki): 0.952 µM and 0.74 µM and 0.678 µM | Ki ([1]; human alpha thrombin, average of R1-R3, read-out: Ki Average): 0.79 µM | Human alpha thrombin inhibition, slope normalized to DMSO ([1]; peptide 1.02E-03 uM): 99.6 and 102.5 and 100.4 | Human alpha thrombin inhibition, slope normalized to DMSO ([1]; peptide 1.04E+00 uM): 62.7 and 63.2 and 64.7 | Human alpha thrombin inhibition, slope normalized to DMSO ([1]; peptide 1.27E-04 uM): 101.4 and 100.0 and 103.5 | Human alpha thrombin inhibition, slope normalized to DMSO ([1]; peptide 1.30E-01 uM): 93.3 and 94.2 and 91.8 | Human alpha thrombin inhibition, slope normalized to DMSO [1, 7]: 35.6 and 42.1 and 48.0 | Human alpha thrombin inhibition, slope normalized to DMSO ([1]; peptide 1.63E-02 uM): 100.3 and 97.9 and 93.0 | Human alpha thrombin inhibition, slope normalized to DMSO ([1]; peptide 1.67E+01 uM): 19.0 and 23.6 and 27.7 | Human alpha thrombin inhibition, slope normalized to DMSO ([1]; peptide 2.03E-03 uM): 98.3 and 97.0 and 102.8 | Human alpha thrombin inhibition, slope normalized to DMSO ([1]; peptide 2.08E+00 uM): 53.1 and 49.4 and 51.7 | Human alpha thrombin inhibition, slope normalized to DMSO ([1]; peptide 2.54E-04 uM): 100.9 and 99.7 | Human alpha thrombin inhibition, slope normalized to DMSO ([1]; peptide 2.60E-01 uM): 86.0 and 78.5 and 87.5 | Human alpha thrombin inhibition, slope normalized to DMSO ([1]; peptide 3.18E-05 uM): 105.6 and 95.1 and 100.8 | Human alpha thrombin inhibition, slope normalized to DMSO ([1]; peptide 3.26E-02 uM): 99.1 and 97.3 and 99.5 | Human alpha thrombin inhibition, slope normalized to DMSO ([1]; peptide 3.33E+01 uM): 14.9 and 14.8 and 17.4 | Human alpha thrombin inhibition, slope normalized to DMSO ([1]; peptide 4.07E-03 uM): 104.1 and 99.4 and 102.2 | Human alpha thrombin inhibition, slope normalized to DMSO ([1]; peptide 4.17E+00 uM): 44.0 and 45.0 and 45.3 | Human alpha thrombin inhibition, slope normalized to DMSO ([1]; peptide 5.09E-04 uM): 89.0 and 97.2 and 100.9 | Human alpha thrombin inhibition, slope normalized to DMSO ([1]; peptide 5.21E-01 uM): 80.8 and 75.1 and 78.9 | Human alpha thrombin inhibition, slope normalized to DMSO ([1]; peptide 6.36E-05 uM): 99.9 and 99.1 and 102.2 | Human alpha thrombin inhibition, slope normalized to DMSO ([1]; peptide 6.51E-02 uM): 97.0 and 92.8 and 96.0 | Human alpha thrombin inhibition, slope normalized to DMSO ([1]; peptide 6.67E+01 uM): 27.9 and 32.4 and 47.7 | Human alpha thrombin inhibition, slope normalized to DMSO ([1]; peptide 8.14E-03 uM): 99.8 and 97.9 and 99.0 | Human alpha thrombin inhibition, slope normalized to DMSO ([1]; peptide 8.33E+00 uM): 29.9 and 28.6 and 29.1 | Ki ([2]; average of R1-R3, read-out: Ki Average): 0.357 µM | Slope normalized to DMSO (proteolytic substrate cleavage over time) ([2]; peptide 1.02E-03 uM): 100.5 and 96.1 and 105.7 | Slope normalized to DMSO (proteolytic substrate cleavage over time) ([2]; peptide 1.04E+00 uM): 47.3 and 45.5 and 46.2 | Slope normalized to DMSO (proteolytic substrate cleavage over time) ([2]; peptide 1.27E-04 uM): 98.2 and 95.5 and 104.0 | Slope normalized to DMSO (proteolytic substrate cleavage over time) ([2]; peptide 1.30E-01 uM): 88.1 and 88.0 and 95.1 | Rat alpha thrombin inhibition, slope normalized to DMSO [2, 7]: 29.3 and 31.0 and 24.5 | Slope normalized to DMSO (proteolytic substrate cleavage over time) ([2]; peptide 1.63E-02 uM): 95.3 and 90.7 and 94.2 | Rat alpha thrombin inhibition, slope normalized to DMSO ([2]; peptide 1.67E+01 uM): 11.1 and 9.5 and 16.8 | Slope normalized to DMSO (proteolytic substrate cleavage over time) ([2]; peptide 2.03E-03 uM): 96.6 and 95.4 and 92.0 | Rat alpha thrombin inhibition, slope normalized to DMSO ([2]; peptide 2.08E+00 uM): 34.7 and 33.7 and 44.2 | Slope normalized to DMSO (proteolytic substrate cleavage over time) ([2]; peptide 2.54E-04 uM): 95.8 (2×) and 100.3 | Slope normalized to DMSO (proteolytic substrate cleavage over time) ([2]; peptide 2.60E-01 uM): 75.1 and 76.7 and 74.0 | Slope normalized to DMSO (proteolytic substrate cleavage over time) ([2]; peptide 3.18E-05 uM): 100.9 and 96.6 and 106.2 | Slope normalized to DMSO (proteolytic substrate cleavage over time) ([2]; peptide 3.26E-02 uM): 100.1 and 92.2 and 91.8 | Rat alpha thrombin inhibition, slope normalized to DMSO ([2]; peptide 3.33E+01 uM): 8.8 and 9.0 and 13.6 | Slope normalized to DMSO (proteolytic substrate cleavage over time) ([2]; peptide 4.07E-03 uM): 100.3 and 98.9 and 95.8 | Rat alpha thrombin inhibition, slope normalized to DMSO ([2]; peptide 4.17E+00 uM): 29.3 and 26.2 and 29.7 | Slope normalized to DMSO (proteolytic substrate cleavage over time) ([2]; peptide 5.09E-04 uM): 99.8 and 96.7 and 105.4 | Slope normalized to DMSO (proteolytic substrate cleavage over time) ([2]; peptide 5.21E-01 uM): 62.1 and 60.1 and 59.5 | Slope normalized to DMSO (proteolytic substrate cleavage over time) ([2]; peptide 6.36E-05 uM): 99.5 and 99.0 and 105.5 | Slope normalized to DMSO (proteolytic substrate cleavage over time) ([2]; peptide 6.51E-02 uM): 92.1 and 90.2 and 94.2 | Rat alpha thrombin inhibition, slope normalized to DMSO ([2]; peptide 6.67E+01 uM): 22.0 and 23.9 and 12.4 | Slope normalized to DMSO (proteolytic substrate cleavage over time) ([2]; peptide 8.14E-03 uM): 88.9 and 94.1 and 99.5 | Rat alpha thrombin inhibition, slope normalized to DMSO ([2]; peptide 8.33E+00 uM): 16.6 and 15.4 and 23.2 | IC50 ([2]; single replicates R1-R3, read-out: IC50): 0.64 µM and 0.631 µM and 0.666 µM | Ki ([2]; single replicates R1-R3, read-out: Ki): 0.354 µM and 0.349 µM and 0.368 µM | SGF stability, Residual peptide Average ([3]; after 8 h vs 0 h (TIC), average of R1-R3): 95.02 | SGF stability, Residual peptide ([3]; after 8 h vs 0 h (TIC), single replicates R1-R3): 100.52 and 97.58 and 86.97 | remaining at 8 h ([3]; pig, simulated gi fluid, 8 h, 37 °C, pH 1.2, read-out: Proteolytic stability: SGF (8 h) % remaining): 95 ± 7% | remaining at 8 h [4]: 87 ± 11% | SIF stability, Residual peptide Average ([5]; average of R1-R3): 87.22 | SIF stability, Residual peptide ([5]; single replicates R1-R3): 90.22 and 74.69 and 96.74 | PAMPA permeability: % permeability ([6]; 50 μM, 12–18 h, acceptor concentration relative to equilibrium): 1.27 ± 0.67% | Papp at 50 μM ([6]; PAMPA, pH 7.4): 0.776 nm/s | Permeability% Average ([6]; PAMPA, average of R1-R3): 1.3% | Permeability% R1 ([6]; PAMPA, replicate R1, TIC of top well sample relative to sample at theoretical equilibrium): 2.04% | Permeability% R3 ([6]; PAMPA, replicate R3, TIC of top well sample relative to sample at theoretical equilibrium): 1.01%
